This series can be described thus: Cell viability (MTS) after treatment with bis-compound. Type of series: cell-based. Conditions: human, pha-activated pbmc, 5 μg/ml. On the procedure:
Human peripheral blood monocytes (PBMC) were obtained from commercial sources as a leukophoresis from a healthy volunteer and were purified by centrifugation on a Ficoll-Hypaque (Pharmacia) gradient (1700 rpm for 20 min). The "buffy" coat containing the PBMC was diluted with serum-free culture medium (SF-RPMI) to a volume of 50 ml and collected by centrifugation at 1500 rpm for 5 min. Cells were resuspended in cell culture medium containing 10% fetal bovine serum (RPMI-10) and phytohemaglutinin (PHA - 10 μg/ml) at a density of 5×10^6 cells/ml and were cultured for 3 days at 37° C. in a humidified CO2 incubator. The PHA-activated cells were collected by centrifugation, washed three times with an equal volume of SF-RPMI and resuspended in fresh RPMI-10 (1×10^6 cells /ml). Aliquots (100 μl) were dispensed into the wells of multiple 96-well plates to give a final cell number of 10^5 per well. Test compounds, dissolved in dimethyl sulfoxide (DMSO) at 1 mg/ml, were first diluted in culture medium to an intermediate concentration of 20 μg/ml and then were added (50 μwell) to a specific well of the plate for each compound. Stimulation medium (50 μl/well) containing 10% serum, IL-2 and IL-12 was added to final concentrations of 25 U/ml and 0.5 ng/ml, respectively. Control wells receive no IL-2 or IL-12 (negative control) or received both interleukins but no test compound (positive control). The plates were incubated for 48 hr at 37° C. in a CO2 incubator at which time aliquots (20 μl) were removed for analysis of IFN-γ concentration by ELISA. A quantitative ELISA was developed by coating 96-well plates with an mouse monoclonal antibody against human IFN-γ, 1 μg/ml in phosphate buffered saline (PBS) (Pestka Biological Laboratories), overnight at 4° C. Unbound antibody was washed off by washing three times with PBS. Non-specific antibody binding was blocked with a solution of 1% bovine serum albumin (BSA) and 1% goat serum in PBS (150 μl/well) which was incubated for 2 hr at 37° C. After washing the blocked plates four times with PBS, test samples and dilutions of the IFN-γ standard are added in a final volume of 100 μl/well. Following an overnight incubation at 4° C., the plates are washed four times with PBS, and a polyclonal rabbit antiserum against human IFN-γ (1/10000 dilution--Petska Biological Laboratories) is added. After an additional incubation for 1 hr at 37° C. and four washes with PBS, a polyclonal donkey anti-rabbit detecting antibody, conjugated to horseradish peroxidase (1/700 dilution--Petska Biological Laboratories) is added for 1 hr at 37° C. The plates are then washed four times with PBS and 100 μl of K-blue substrate E(ILISA Technologies, Neogen Corp.) is added until the color in the wells containing the standard curve is sufficiently developed, at which time 100 μl of "Red-stop" solution (ELISA Technologies) is added. The absorbance of the solution within each well of the plate is then read at 650 nm using an ELISA plate reader (Dynatech MR7000). The amount of IFN-γ is calculated by comparing the optical density of the test sample with a standard curve derived from the dilutions of the control IFN-y. […] MTS is a chemical chromophore that is metabolized in the mitochondria of viable cells to produce a color which increases in intensity in proportion to the numbers of viable cells. The absorbance of the cell culture can be compared to control cultures in order to determine the percent viability.

One may read the viability as a read-out of living cells in per cent, often relative to untreated cells. Take `CCCCCCCC(c1cc(C)cc(C)c1O)c1cc(C)cc(C)c1O` [Compound 51852]: the viability came to 105%.
With `Cc1cc(C)c(O)c(C(CC(C)CC(C)(C)C)c2cc(C)cc(C)c2O)c1` (centres unmarked) [Compound 51853, bis-1,1-[2-hydroxy-3,5-dimethylphenyl]-3,5,5-dimethyl hexan], the viability turned out to be 104%.

These data come from patent US5880146A, “Inhibition of IL-12-induced IFN-γ synthesis by specific bis-phenol compounds as a method of immune modulation” (Fuji ImmunoPharmaceuticals Corporation, priority 1995, dated 1999).
